Values after ≈ are worked out from the molar mass of the structure shown. Like-named read-outs stand apart in the source and are kept apart here.
Columns and labels:
Format in all cases: cell-based
Botrtyis cinerea (Bc) = experiment: In vitro pathogen growth inhibition assay, Bc; settings: 48 h
How it was run: (§1)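 Spores in 17% V8 liquid medium, or 1.5 mm Rs mycelial plugs in ¼ PDB, incubated with compound; final concentration checked by OD600 for precipitation. OD readings at 24 and 48 h, blank-subtracted, plus visual ratings; value is concentration giving ≥90% growth inhibition.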

Septoria tritici (St) = experiment: In vitro pathogen growth inhibition assay, St; settings: Zymoseptoria tritici, 48 h
How it was run: as §1

[1] = tested on: Fusarium moniliforme (Fm); experiment: In vitro pathogen growth inhibition assay, Fm; settings: Fusarium verticillioides
How it was run: as §1

[2] = tested on: Collectotrichum graminicola (Cg); experiment: In vitro pathogen growth inhibition assay, Cg; settings: 48 h
How it was run: as §1

Rhizoctonia solani (Rs) = experiment: In vitro pathogen growth inhibition assay, Rs (mycelial plugs); settings: Rhizoctonia solani, 48 h
How it was run: (§2)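 Spores of Dm, Fv and Pc were diluted in 17% V8 liquid medium; Rs used 1.5 mm mycelial plugs in ¼ PDB. Compounds from 2.5 mg/ml DMSO stocks were combined with inoculum, growth was read by OD600 at 24 and 48 h with blank subtraction, and the reported value is the concentration giving ≥90% inhibition.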

[3] = tested on: Fusarium virguliforme (Fv); experiment: In vitro pathogen growth inhibition assay, Fv
How it was run: as §2

[4] = tested on: Phytophthora capsici (Pc); experiment: In vitro pathogen growth inhibition assay, Pc; settings: 48 h
How it was run: as §2

Diplodia maydis (Dm) = experiment: In vitro pathogen growth inhibition assay, Dm; settings: Stenocarpella maydis, 48 h
How it was run: as §2

[5] = ≥90% growth inhibition, 48 hours, vs 2% DMSO control, read-out: Compound Concentration (ppm) sufficient for ≥90% inhibition of Bc
[6] = ≥90% growth inhibition, 48 hours, vs 2% DMSO control, read-out: Compound Concentration (ppm) sufficient for ≥90% inhibition of St
[7] = ≥90% growth inhibition, 48 hours, vs 2% DMSO control, read-out: Compound Concentration (ppm) sufficient for ≥90% inhibition of Fm
[8] = ≥90% growth inhibition, 48 hours, vs 2% DMSO control, read-out: Compound Concentration (ppm) sufficient for ≥90% inhibition of Cg
[9] = ≥90% growth inhibition, mycelial plugs, 48 hours, vs 2% DMSO control, read-out: Compound Concentration (ppm) sufficient for ≥90% inhibition of Rs
[10] = ≥90% growth inhibition, 48 hours, vs 2% DMSO control, read-out: Compound Concentration (ppm) sufficient for ≥90% inhibition of Fv
[11] = ≥90% growth inhibition, 48 hours, vs 2% DMSO control, read-out: Compound Concentration (ppm) sufficient for ≥90% inhibition of Pc
[12] = ≥90% growth inhibition, 48 hours, vs 2% DMSO control, read-out: Compound Concentration (ppm) sufficient for ≥90% inhibition of Dm
[13] = concentration sufficient to ≥90% inhibition of growth, 48 hours vs 2% DMSO control, read-out: Compound Concentration (ppm) for ≥90% inhibition, Bc
[14] = concentration sufficient to ≥90% inhibition of growth, 48 hours vs 2% DMSO control, read-out: Compound Concentration (ppm) for ≥90% inhibition, St
[15] = concentration sufficient to ≥90% inhibition of growth, 48 hours vs 2% DMSO control, read-out: Compound Concentration (ppm) for ≥90% inhibition, Fm
[16] = concentration sufficient to ≥90% inhibition of growth, 48 hours vs 2% DMSO control, read-out: Compound Concentration (ppm) for ≥90% inhibition, Cg
[17] = concentration sufficient to ≥90% inhibition of growth, 48 hours vs 2% DMSO control, read-out: Compound Concentration (ppm) for ≥90% inhibition, Rs
[18] = concentration sufficient to ≥90% inhibition of growth, 48 hours vs 2% DMSO control, read-out: Compound Concentration (ppm) for ≥90% inhibition, Fv
[19] = concentration sufficient to ≥90% inhibition of growth, 48 hours vs 2% DMSO control, read-out: Compound Concentration (ppm) for ≥90% inhibition, Pc
[20] = concentration sufficient to ≥90% inhibition of growth, 48 hours vs 2% DMSO control, read-out: Compound Concentration (ppm) for ≥90% inhibition, Dm

Row | IC90 (Botrtyis cinerea (Bc); [5]) | IC90 (Septoria tritici (St); [6]) | IC90 [1, 7] | IC90 [2, 8] | IC90 (Rhizoctonia solani (Rs); [9]) | IC90 [3, 10] | IC90 [4, 11] | IC90 (Diplodia maydis (Dm); [12]) | IC90 (Botrtyis cinerea (Bc); [13]) | IC90 (Septoria tritici (St); [14]) | IC90 [1, 15] | IC90 [2, 16] | IC90 (Rhizoctonia solani (Rs); [17]) | IC90 [3, 18] | IC90 [4, 19] | IC90 (Diplodia maydis (Dm); [20]) | SMILES
1 | 2 µg/mL (≈ 3.29 µM) | > 50 µg/mL | 0.08 µg/mL (≈ 0.132 µM) | 2 µg/mL (≈ 3.29 µM) | 2 µg/mL (≈ 3.29 µM) | 0.4 µg/mL (≈ 0.658 µM) | > 50 µg/mL | ≥ 10 µg/mL |  |  |  |  |  |  |  |  | CC(=O)Oc1ccccc1[C@H](Cn1c(=O)n(C(C)(C)C(=O)NC(C)C)c(=O)c2c(C)c(-n3nccn3)sc21)OCCC#N [Compound I-304]
2 |  |  |  |  |  |  |  |  | 50 µg/mL (≈ 83 µM) | > 50 µg/mL | 10 µg/mL (≈ 16.6 µM) | > 50 µg/mL | > 50 µg/mL | 10 µg/mL (≈ 16.6 µM) | > 50 µg/mL | > 50 µg/mL | COc1ccc(F)cc1[C@H](Cn1c(=O)n(C(C)(C)C(=O)NC(C)C)c(=O)c2c(C)c(-n3nccn3)sc21)OC(=O)CO [Compound I-309]
3 | 0.4 µg/mL (≈ 0.696 µM) | > 50 µg/mL | 0.08 µg/mL (≈ 0.139 µM) | 0.08 µg/mL (≈ 0.139 µM) | 0.08 µg/mL (≈ 0.139 µM) | 0.4 µg/mL (≈ 0.696 µM) | 2 µg/mL (≈ 3.48 µM) | 0.4 µg/mL (≈ 0.696 µM) |  |  |  |  |  |  |  |  | COc1ccc(F)cc1[C@@](O)(CO)Cn1c(=O)n(C(C)(C)C(=O)NC(C)C)c(=O)c2c(C)c(-n3nccn3)sc21 [Compound I-315]
4 |  |  |  |  |  |  |  |  | 50 µg/mL (≈ 83.7 µM) | > 50 µg/mL | 10 µg/mL (≈ 16.7 µM) | 50 µg/mL (≈ 83.7 µM) | > 50 µg/mL | ≥ 10 µg/mL | > 50 µg/mL | > 50 µg/mL | COc1ccc(F)cc1[C@H](Cn1c(=O)n(C(C)(C)C(=O)NC(C)C)c(=O)c2c(C)c(-n3cncn3)sc21)OCCC#N [Compound I-317]
5 |  |  |  |  |  |  |  |  | 50 µg/mL (≈ 87.3 µM) | > 50 µg/mL | 10 µg/mL (≈ 17.5 µM) | > 50 µg/mL | > 50 µg/mL | > 50 µg/mL | > 50 µg/mL | > 50 µg/mL | CCNC(=O)C(C)(C)n1c(=O)c2c(C)c(-n3nccn3)sc2n(C[C@@H](OC(C)=O)c2cc(F)ccc2OC)c1=O [Compound I-318]
6 | 50 µg/mL (≈ 83 µM) | > 50 µg/mL | 2 µg/mL (≈ 3.32 µM) | > 50 µg/mL | > 50 µg/mL | 10 µg/mL (≈ 16.6 µM) | > 50 µg/mL | > 50 µg/mL |  |  |  |  |  |  |  |  | COc1ccc(F)cc1[C@H](Cn1c(=O)n(C(C)(C)C(=O)NC(C)C)c(=O)c2c(C)c(-n3nccn3)sc21)OCCCO [Compound I-319]

The remaining lines, values behind:

Row | SMILES | IC90 (Botrtyis cinerea (Bc); [5]) | IC90 (Septoria tritici (St); [6]) | IC90 [1, 7] | IC90 [2, 8] | IC90 (Rhizoctonia solani (Rs); [9]) | IC90 [3, 10] | IC90 [4, 11] | IC90 (Diplodia maydis (Dm); [12]) | IC90 (Botrtyis cinerea (Bc); [13]) | IC90 (Septoria tritici (St); [14]) | IC90 [1, 15] | IC90 [2, 16] | IC90 (Rhizoctonia solani (Rs); [17]) | IC90 [3, 18] | IC90 [4, 19] | IC90 (Diplodia maydis (Dm); [20])
7 | CCNC(=O)[C@H](C)n1c(=O)c2c(C)c(C(=O)OCC)sc2n(C[C@H](OCCC#N)c2cc(F)ccc2OC)c1=O [Compound I-305] | 0.4 µg/mL (≈ 0.696 µM) | > 50 µg/mL | 0.08 µg/mL (≈ 0.139 µM) | 2 µg/mL (≈ 3.48 µM) | 0.4 µg/mL (≈ 0.696 µM) | 0.4 µg/mL (≈ 0.696 µM) | > 50 µg/mL | 2 µg/mL (≈ 3.48 µM) |  |  |  |  |  |  |  | 
8 | CCNC(=O)[C@H](C)n1c(=O)c2c(C)c(-n3cccn3)sc2n(C[C@H](OCCC#N)c2cc(F)ccc2OC)c1=O [Compound I-306] |  |  |  |  |  |  |  |  | 50 µg/mL (≈ 87.9 µM) | > 50 µg/mL | 10 µg/mL (≈ 17.6 µM) | > 50 µg/mL | > 50 µg/mL | > 50 µg/mL | > 50 µg/mL | > 50 µg/mL
9 | COCCO[C@@H](Cn1c(=O)n([C@@H](C)C(=O)NC(C)C)c(=O)c2c(C)c(-n3cccn3)sc21)c1cc(F)ccc1OC [Compound I-311] |  |  |  |  |  |  |  |  | 50 µg/mL (≈ 85.1 µM) | > 50 µg/mL | 50 µg/mL (≈ 85.1 µM) | > 50 µg/mL | > 50 µg/mL | > 50 µg/mL | > 50 µg/mL | > 50 µg/mL
10 | COc1ccc(F)cc1[C@H](Cn1c(=O)n([C@@H](C)C(=O)NC2CCC2)c(=O)c2c(C)c(-n3cccn3)sc21)OCCC#N [Compound I-312] |  |  |  |  |  |  |  |  | > 50 µg/mL | > 50 µg/mL | 10 µg/mL (≈ 16.8 µM) | > 50 µg/mL | 2 µg/mL (≈ 3.36 µM) | > 50 µg/mL | > 50 µg/mL | > 50 µg/mL
11 | COc1ccc(F)cc1[C@H](Cn1c(=O)n([C@@H](C)C(=O)N2CCCC2)c(=O)c2c(C)c(-n3cccn3)sc21)OCCC#N [Compound I-313] | > 50 µg/mL | > 50 µg/mL | 2 µg/mL (≈ 3.36 µM) | 50 µg/mL (≈ 84.1 µM) | 50 µg/mL (≈ 84.1 µM) | 50 µg/mL (≈ 84.1 µM) | > 50 µg/mL | > 50 µg/mL |  |  |  |  |  |  |  | 
12 | COc1ccc(F)cc1[C@H](Cn1c(=O)n([C@H](C)C(=O)N2CCCC2)c(=O)c2c(C)c(-n3cccn3)sc21)OCCC#N [Compound I-314] | > 50 µg/mL | > 50 µg/mL | 2 µg/mL (≈ 3.36 µM) | 50 µg/mL (≈ 84.1 µM) | > 50 µg/mL | 10 µg/mL (≈ 16.8 µM) | > 50 µg/mL | > 50 µg/mL |  |  |  |  |  |  |  | 
